Measured values as given in ChEMBL document CHEMBL1208717, “Antimalarial 3-arylamino-6-benzylamino-1,2,4,5-tetrazines” (Bioorg Med Chem Lett, 2010).
Where “and” joins values, the source holds several entries; their conditions need not be identical. Identical values can stand only once. Values belong to the compound of their own block, whether it stands above or below them.

What was measured:
[1] = Cytotoxicity against human HEK cells; format: cell-based; conditions: HEK293
Plasmodium falciparum [2] = assay: Antimalarial activity against erythrocytic stage of chloroquine-resistant Plasmodium falciparum Dd2; format: functional, organism-based
Plasmodium falciparum [3] = assay: Antimalarial activity against erythrocytic stage of Plasmodium falciparum 3D7; format: functional, organism-based
[4] = Cytotoxicity against human HEK cells at 38 uM; format: cell-based; conditions: hek293, 38 µM
Plasmodium falciparum [5] = assay: Antimalarial activity against erythrocytic stage of Plasmodium falciparum 3D7 at 38 uM; format: functional, organism-based
Leishmania infantum = assay: Antileishmanial activity against amastigote stage of Leishmania infantum; format: functional, organism-based
L6 = assay: Cytotoxicity against rat L6 cells; format: cell-based
Trypanosoma cruzi = assay: Antitrypanosomal activity against amastigote stage of Trypanosoma cruzi Tulahuen C2C4; format: functional, organism-based; conditions: Tulahaen C2C4
[6] = tested on: Trypanosoma brucei rhodesiense; assay: Antitrypanosomal activity against bloodstream form of Trypanosoma brucei rhodesiense STIB 900; format: functional, organism-based
Plasmodium falciparum [7] = assay: Antimalarial activity against erythrocytic stage of Plasmodium falciparum 3D7 at 115 uM; format: functional, organism-based
[8] = Cytotoxicity against human HEK cells at 115 uM; format: cell-based; conditions: hek293, 115 µM
[9] = Cytotoxicity against human HEK cells at 29 uM; format: cell-based; conditions: hek293, 29 µM
Plasmodium falciparum [10] = assay: Antimalarial activity against erythrocytic stage of chloroquine-resistant Plasmodium falciparum Dd2 at 115 uM; format: functional
[11] = Plasmodium falciparum, Dd2, read-out: EC50

Compound: CN(C)CCN(c1ccc(Cl)cc1)c1nnc(NCc2ccccc2)nn1
IC50 [1]: 38 µM
EC50 (Plasmodium falciparum [2]; [11]): 20 µM
EC50 (Plasmodium falciparum [3]; Plasmodium falciparum, 3D7): 13000 nM

Compound: CN(C)CCOc1cccc(Nc2nnc(NCc3ccccc3)nn2)c1
Activity [4]: 52%
EC50 (Plasmodium falciparum [2]; [11]): 13 µM
EC50 (Plasmodium falciparum [3]; Plasmodium falciparum, 3D7): 15000 nM

Compound: COc1nncc(-c2cnnc(SC)n2)n1
EC50 (Leishmania infantum): 8.6 µM
IC50 (L6): 33 µM
EC50 (Plasmodium falciparum [3]; Plasmodium falciparum, 3D7): 180 nM
EC50 (Trypanosoma cruzi): 16 µM
EC50 [6]: 5.7 µM

Compound: CN(c1ccc(Cl)cc1)c1nnc(NCc2ccccc2)nn1
IC50 [1]: 12 µM
EC50 (Plasmodium falciparum [2]; [11]): 3.5 µM
EC50 (Plasmodium falciparum [3]; Plasmodium falciparum, 3D7): 2400 nM

Compound: Clc1ccc(Nc2nnc(NCc3ccccc3)nn2)cc1
EC50 (Leishmania infantum): 16 µM
Activity [9]: 58%
EC50 (Plasmodium falciparum [2]; [11]): 1.1 µM
IC50 (L6): > 32 µM
EC50 (Plasmodium falciparum [3]): 440 nM and 1100 nM
EC50 (Trypanosoma cruzi): 15 µM
EC50 [6]: > 32 µM

Compound: CN(C)CCOc1cccc(CNc2nnc(Nc3ccc(Cl)cc3)nn2)c1
IC50 [1]: 21 µM
EC50 (Plasmodium falciparum [2]): 6 µM
EC50 (Plasmodium falciparum [3]; Plasmodium falciparum, 3D7): 5000 nM

Compound: Clc1ccc(Nc2nnc(NCCc3ccccc3)nn2)cc1
Activity (Plasmodium falciparum [7]): 85%
Activity [8]: Non-toxic
Activity (Plasmodium falciparum [10]): 88%

More lines, main results first:

EC50 (Plasmodium falciparum [5]): Not Active
Compound: CC(Nc1nnc(Nc2ccc(Cl)cc2)nn1)c1ccccc1 (configuration not stated)
Activity [4]: Non-toxic

EC50 (Plasmodium falciparum [7]): Not Active
Compound: c1ccc(CNc2nnc(Nc3ccccc3)nn2)cc1
Activity [8]: Non-toxic

EC50 (Plasmodium falciparum [7]): Not Active
Compound: CNc1nnc(NCc2ccccc2)nn1
Activity [8]: Non-toxic

EC50 (Plasmodium falciparum [7]): Not Active
Compound: CCCCNc1nnc(NCc2ccccc2)nn1
Activity [8]: Non-toxic

EC50 (Plasmodium falciparum [7]): Not Active
Compound: CN(C)CCN(Cc1ccccc1)c1nnc(N(CCN(C)C)c2ccc(Cl)cc2)nn1
Activity [8]: Non-toxic
